# Data: ChEMBL document CHEMBL1152925, “Vladimuliecins A and B: cytotoxic pentacyclic pregnanols from Vladimiria muliensis” (J Nat Prod, 2009)
# Columns and labels:
# Format in all cases: functional, cell-based
# HL-60 = assay: Cytotoxicity against human HL60 cells after 48 hrs by SRB assay
# SMMC-7721 = assay: Cytotoxicity against human SMMC7721 cells after 48 hrs by SRB assay
# HeLa = assay: Cytotoxicity against human HeLa cells after 48 hrs by SRB assay
# [1] = Homo sapiens, HL-60, 48 h, read-out: IC50
# [2] = Homo sapiens, SMMC-7721, 48 h, read-out: IC50
structure (smiles),measurement,setting,value
CC(=O)O[C@H](C)[C@H]1CC[C@@]2(O)[C@]1(C)CC[C@@H]1[C@@]3(C)CC[C@@H]4C[C@@]43[C@H](O)C[C@]12O [VLADIMULIECIN B],IC50,HL-60; [1],88 µM
same,IC50,SMMC-7721; smmc-7721,104 µM
same,IC50,HeLa; hela,121 µM
C[C@@H](O)[C@H]1CC[C@@]2(O)[C@]1(C)CC[C@@H]1[C@@]3(C)CC[C@@H]4C[C@@]43[C@H](O)C[C@]12O,IC50,HL-60; hl-60,138 µM
same,IC50,SMMC-7721; smmc-7721,101 µM
same,IC50,HeLa; hela,165 µM
CO[C@@]12[C@H](COC(N)=O)C3=C(C(=O)C(C)=C(N)C3=O)N1C[C@@H]1N[C@@H]12 [MITOMYCIN],IC50,HL-60; [1],1.5 µM
same,IC50,SMMC-7721; [2],5.4 µM
same,IC50,"HeLa; Homo sapiens, HeLa, 48 h, read-out: IC50",3.3 µM
CC(=O)O[C@H](C)[C@H]1CC[C@@]2(O)[C@]1(C)CC[C@@H]1[C@@]3(C)CC[C@@H]4C[C@@]43[C@H](OC(C)=O)C[C@]12O [VLADIMULIECIN A],IC50,HL-60; [1],99 µM
same,IC50,SMMC-7721; [2],98.6 µM
same,IC50,HeLa; hela,167 µM
